According to US20170114070A1, “INHIBITORS OF THE WNT SIGNALLING PATHWAYS” (Bayer Pharma Aktiengesellschaft, priority 2014, published 2017):
pIC50: −log10 of the molar value.

How the values were obtained:
[1] = system: HCT116 FOPFlash (FOP control vector, non-functional TCF elements); assay: Cellular control reporter assay, HCT116 FOP control vector; format: cell-based; conditions: Homo sapiens, HCT-116; HCT116 stably transfected with FOP control vector; 36 hours incubation; luciferase expression; dilution series from 50 μM
Protocol: (§1) In a parallel approach, HCT116 cells were cotransfected with the FOP control vector and pcDNA3. The FOP vector is identical to the TOP construct, but it contains instead of functional TCF elements a randomized, non-functional sequence. For this transfection a stable transfected cell line was generated as well.
(§2) In preparation of the assay, the two cell lines were plated 24 hours before at 10000 cells per well of a 384 micro titre plate (MTP) in 30 μL growth medium. Selective inhibitory activity for small molecules on the mutated Wnt pathway was determined after parallel incubation of both (TOP and FOP) HCT116 reporter cell lines with a compound dilution series from 50 μM to 15 nM in steps of 3.16-fold dilutions in CAFTY buffer (130 mM NaCl, 5 mM KCl, 20 mM HEPES, 1 mM MgCl2, 5 mM NaHCO3, pH 7.4) containing 2 mM Ca^2+ and 0.01% BSA. The compounds were thereby serially prediluted in 100% DMSO and thereafter in addition 50 fold into the CAFTY compound dilution buffer (described above). From this dilution 10 μL were added to the cells in 30 μL growth medium and incubated for 36 hours at 37° C. and 5% CO2. Thereafter luciferase assay buffer (1:1 mixture of luciferase substrate buffer (20 mM Tricine, 2.67 mM MgSO4, 0.1 mM EDTA, 4 mM DTT, 270 μM Coenzyme A, 470 μM Luciferin, 530 μM ATP, ph adjusted to pH 7.8 with a sufficient volume of 5M NaOH) and Triton buffer (30 mL Triton X-100, 115 mL glycerol, 308 mg Dithiothreitol, 4.45 g Na2HPO4.2H2O, 3.03 g TRIS HCl, ad 1 l H20, pH 7.8) was added as equal volume to the compound solution on the cells to determine luciferase expression as a measure of Wnt signaling activity in a luminometer.

[2] = system: constitutive active Wnt pathway (HCT116 TOPFlash); assay: Cellular reporter assay, HCT116 Super TopFlash (constitutive active Wnt pathway); format: cell-based; conditions: Homo sapiens, HCT-116; HCT116 stably transfected with Super TopFlash vector; 36 hours incubation; luciferase expression
Protocol: In order to discover and characterize small molecules which inhibit the constitutive active colorectal cancer cell (CRC) Wnt pathway, a cellular reporter assay was employed. The corresponding assay cell was generated by transfection of the colorectal cancer cell line HCT116 (ATCC, #CCL-247) with the Super TopFlash vector (Morin, Science 275, 1997, 1787-1790; Molenaar et al., Cell 86 (3), 1996, 391-399). The HCT116 cell line is cultivated at 37° C. and 5% CO2 in DMEM/F-12 (Life Technologies, #11320-074), supplemented with 2 mM glutamine, 20 mM HEPES, 1.4 mM pyruvate, 0.15% Na-bicarbonate and 10% foetal bovine serum (GIBCO, #10270), this cancer cell line is pathophysiological relevant since it carries a deletion of position S45 in the β-catenin gene, leading to constitutive active Wnt signaling. Stable transfectants were generated by cotransfection with pcDNA3 and selection of stable transfected cells with 1 mg/ml G418.
as §1, §2

Row | SMILES | pIC50 [1] | pIC50 [2]
1 | CN1CCN(CC(=O)Nc2cc(C(=O)Nc3ccc(-c4ccc(N)nc4)nn3)ccc2OC(F)(F)F)CC1 [Example 1, N-[6-(6-aminopyridin-3-yl)pyridazin-3-yl]-3-{[(4-methylpiperazin-1-yl)acetyl]amino}-4-(trifluoromethoxy)benzamide] | ≤ 4.30 | 7.61
2 | CN1CCN(CC(=O)Nc2cc(C(=O)Nc3ccc(-c4cncnc4)nn3)ccc2OC(F)(F)F)CC1 [Example 2, 3-{[(4-methylpiperazin-1-yl)acetyl]amino}-N-[6-(pyrimidin-5-yl)pyridazin-3-yl]-4-(trifluoromethoxy)benzamide] | ≤ 4.30 | 6.79
3 | CN1CCN(CC(=O)Nc2cc(C(=O)Nc3ccc(-c4cnc(N)nc4)nn3)ccc2OC(F)(F)F)CC1 [Example 3, N-[6-(2-aminopyrimidin-5-yl)pyridazin-3-yl]-3-{[(4-methylpiperazin-1-yl)acetyl]amino}-4-(trifluoromethoxy)benzamide] | ≤ 4.30 | 7.00
4 | CN1CCN(CC(=O)Nc2cc(C(=O)Nc3ccc(-c4cccnc4)nn3)ccc2OC(F)(F)F)CC1 [Example 4, 3-{[(4-methylpiperazin-1-yl)acetyl]amino}-N-[6-(pyridin-3-yl)pyridazin-3-yl]-4-(trifluoromethoxy)benzamide] | ≤ 4.30 | 7.76
5 | O=C(CN1CCN(CC(F)F)CC1)Nc1cc(C(=O)Nc2ccc(-c3ccccc3)nn2)ccc1OC(F)(F)F [Example 5, 3-({[4-(2,2-difluoroethyl)piperazin-1-yl]acetyl}amino)-N-(6-phenylpyridazin-3-yl)-4-(trifluoromethoxy)benzamide] | ≤ 4.30 | 6.69
6 | O=C(CN1CCOCC1)Nc1cc(NC(=O)c2cnc(-c3ccccc3)cn2)ccc1OC(F)(F)F [Example 6, N-{3-[(morpholin-4-ylacetyl)amino]-4-(trifluoromethoxy)phenyl}-5-phenylpyrazine-2-carboxamide] | ≤ 4.30 | 6.08
7 | O=C(CN1CCOCC1)Nc1cc(C(=O)Nc2ccc(-c3ccccc3)nn2)ccc1OC(F)(F)F [Example 7, 3-[(morpholin-4-ylacetyl)amino]-N-(6-phenylpyridazin-3-yl)-4-(trifluoromethoxy)benzamide] | ≤ 4.30 | 7.70
8 | O=C(CN1C[C@@H]2C[C@H]1CO2)Nc1cc(C(=O)Nc2ccc(-c3ccccc3)nn2)ccc1OC(F)(F)F [Example 8, 3-{[(1S,4S)-2-oxa-5-azabicyclo[2.2.1]hept-5-ylacetyl]amino}-N-(6-phenylpyridazin-3-yl)-4-(trifluoromethoxy)benzamide] | ≤ 4.30 | 6.90
9 | CN1CCN(CC(=O)Nc2cc(C(=O)Nc3ccc(-c4ccccc4)nn3)ccc2OC(F)(F)F)CC1 [Example 9, 3-{[(4-methylpiperazin-1-yl)acetyl]amino}-N-(6-phenylpyridazin-3-yl)-4-(trifluoromethoxy)benzamide] | ≤ 4.30 | 7.53
10 | O=C(CN1CCOCC1)Nc1cc(C(=O)Nc2cnc(-c3ccccc3)cn2)ccc1OC(F)(F)F [Example 10, 3-[(morpholin-4-ylacetyl)amino]-N-(5-phenylpyrazin-2-yl)-4-(trifluoromethoxy)benzamide] | ≤ 4.30 | 7.20
11 | CN1CCN(CC(=O)Nc2cc(C(=O)Nc3cnc(-c4ccccc4)cn3)ccc2OC(F)(F)F)CC1 [Example 11, 3-{[(4-methylpiperazin-1-yl)acetyl]amino}-N-(5-phenylpyrazin-2-yl)-4-(trifluoromethoxy)benzamide] | ≤ 4.30 | 7.89
12 | CN1CCN(CC(=O)Nc2cc(C(=O)Nc3ccc(-c4cccnc4F)nn3)ccc2OC(F)(F)F)CC1 [Example 12, N-[6-(2-fluoropyridin-3-yl)pyridazin-3-yl]-3-{[(4-methylpiperazin-1-yl)acetyl]amino}-4-(trifluoromethoxy)benzamide] | ≤ 4.30 | 6.92
13 | Nc1ncc(-c2ccc(NC(=O)c3ccc(OC(F)(F)F)c(NC(=O)CN4CCOCC4)c3)nn2)cn1 [Example 13, N-[6-(2-aminopyrimidin-5-yl)pyridazin-3-yl]-3-[(morpholin-4-ylacetyl)amino]-4-(trifluoromethoxy)benzamide] | ≤ 4.30 | 7.17
14 | O=C(CN1CCOCC1)Nc1cc(C(=O)Nc2ccc(-c3cccnc3)nn2)ccc1OC(F)(F)F [Example 14, 3-[(morpholin-4-ylacetyl)amino]-N-[6-(pyridin-3-yl)pyridazin-3-yl]-4-(trifluoromethoxy)benzamide] | ≤ 4.30 | 7.27
15 | O=C(CN1CCOCC1)Nc1cc(C(=O)Nc2ccc(-c3cncnc3)nn2)ccc1OC(F)(F)F [Example 15, 3-[(morpholin-4-ylacetyl)amino]-N-[6-(pyrimidin-5-yl)pyridazin-3-yl]-4-(trifluoromethoxy)benzamide] | ≤ 4.30 | 6.20
16 | Nc1ccc(-c2ccc(NC(=O)c3ccc(OC(F)(F)F)c(NC(=O)CN4CCOCC4)c3)nn2)cn1 [Example 16, N-[6-(6-aminopyridin-3-yl)pyridazin-3-yl]-3-[(morpholin-4-ylacetyl)amino]-4-(trifluoromethoxy)benzamide] | ≤ 4.30 | 7.36
17 | O=C(CN1CCOCC1)Nc1cc(C(=O)Nc2ccc(-c3cccnc3F)nn2)ccc1OC(F)(F)F [Example 17, N-[6-(2-fluoropyridin-3-yl)pyridazin-3-yl]-3-[(morpholin-4-ylacetyl)amino]-4-(trifluoromethoxy)benzamide] | ≤ 4.30 | 6.38

The next lines start with the values.

Row | pIC50 [1] | pIC50 [2] | SMILES
18 | 4.70 | 7.80 | CN1CCN(CC(=O)Nc2cc(C(=O)Nc3ncc(-c4ccccc4)nn3)ccc2OC(F)(F)F)CC1 [Example 18, 3-{[(4-methylpiperazin-1-yl)acetyl]amino}-N-(6-phenyl-1,2,4-triazin-3-yl)-4-(trifluoromethoxy)benzamide]
19 | ≤ 4.30 | 6.49 | CN1CCN(CC(=O)Nc2cc(C(=O)Nc3ncc(-c4ccccc4)cn3)ccc2OC(F)(F)F)CC1 [Example 19, 3-{[(4-methylpiperazin-1-yl)acetyl]amino}-N-(5-phenylpyrimidin-2-yl)-4-(trifluoromethoxy)benzamide]
20 | ≤ 4.30 | 7.84 | O=C(Nc1cnc(-c2ccccc2)cn1)c1ccc(OC(F)(F)F)c(NC(=O)C2(N3CCOCC3)CC2)c1 [Example 20, 3-({[1-(morpholin-4-yl)cyclopropyl]carbonyl}amino)-N-(5-phenylpyrazin-2-yl)-4-(trifluoromethoxy)benzamide]
21 | 4.96 | 7.77 | CN1CCN(CC(=O)Nc2cc(C(=O)Nc3cnc(-c4ccccc4)cn3)ccc2OC2CC2)CC1 [Example 21, 4-(cyclopropyloxy)-3-{[(4-methylpiperazin-1-yl)acetyl]amino}-N-(5-phenylpyrazin-2-yl)benzamide]
22 | 4.42 | 7.77 | CN1CCN(CC(=O)Nc2cc(C(=O)Nc3cnc(-c4cccnc4)cn3)ccc2OC(F)(F)F)CC1 [Example 22, 3-{[(4-methylpiperazin-1-yl)acetyl]amino}-N-[5-(pyridin-3-yl)pyrazin-2-yl]-4-(trifluoromethoxy)benzamide]
23 | 4.34 | 7.53 | O=C(CN1CCOCC1)Nc1cc(C(=O)Nc2cnc(-c3cccnc3)cn2)ccc1OC(F)(F)F [Example 23, 3-[(morpholin-4-ylacetyl)amino]-N-[5-(pyridin-3-yl)pyrazin-2-yl]-4-(trifluoromethoxy)benzamide]
24 | ≤ 4.30 |  | CN1CCN(CC(=O)Nc2cc(C(=O)Nc3cnc(-c4ccc(N)nc4)cn3)ccc2OC(F)(F)F)CC1 [Example 24, N-[5-(6-aminopyridin-3-yl)pyrazin-2-yl]-3-{[(4-methylpiperazin-1-yl)acetyl]amino}-4-(trifluoromethoxy)benzamide]
25 | 4.64 | 5.34 | O=C(CN1CCOCC1)Nc1cc(C(=O)Nc2cnc(-c3ccccc3F)cn2)ccc1OC(F)(F)F [Example 25, N-[5-(2-fluorophenyl)pyrazin-2-yl]-3-[(morpholin-4-ylacetyl)amino]-4-(trifluoromethoxy)benzamide]
26 | 5.51 |  | O=C(Nc1ccc([N+](=O)[O-])cc1Cl)c1cc(Cl)ccc1O [Ref., niclosamide, reference compound]
